According to publication PMC11790763, “A Peptide Motif Covering Splice Site B in Neuroligin-1 Binds to Aβ and Acts as a Neprilysin Inhibitor” (Molecular Neurobiology, 2024):
Bridges are numbered along the chain shown (N, C = ends). Roman numbers before positions name the chains, in order. Where no end group is shown, it is not given here.

B1: NL1: recombinant rat neuroligin-1, soluble ectodomain (R&D systems) (protein, UniProt Q62765 46-697, looked up)
extracellular domain: QKLDDVDPLVTTNFGKIRGIKKELNNEILGPVIQFLGVPYAAPPTGEHRFQPPEPPSPWSDIRNATQFAPVCPQNIIDGRLPEVMLPVWFTNNLDVVSSYVQDQSEDCLYLNIYVPTEDVKRISKECARKPGKKICRKGDIRDSGGPKPVMVYIHGGSYMEGTGNLYDGSVLASYGNVIVITVNYRLGVLGFLSTGDQAAKGNYGLLDLIQALRWTSENIGFFGGDPLRITVFGSGAGGSCVNLLTLSHYSEGNRWSNSTKGLFQRAIAQSGTALSSWAVSFQPAKYARILATKVGCNVSDTVELVECLQKKPYKELVDQDVQPARYHIAFGPVIDGDVIPDDPQILMEQGEFLNYDIMLGVNQGEGLKFVENIVDSDDGVSASDFDFAVSNFVDNLYGYPEGKDVLRETIKFMYTDWADRHNPETRRKTLLALFTDHQWVAPAVATADLHSNFGSPTYFYAFYHHCQTDQVPAWADAAHGDEVPYVLGIPMIGPTELFPCNFSKNDVMLSAVVMTYWTNFAKTGDPNQPVPQDTKFIHTKPNRFEEVAWTRYSQKDQLYLHIGLKPRVKEHYRANKVNLWLELVPHLHNLNDISQYTSTTTKVPSTDITLRPTRKNSTPVTSAFPTAKQDDPKQQPSPFSVDQRDYSTELS
modifications: extracellular domain

Legend:
[1] = target: T1, Aβ1-42 (Homo sapiens, UniProt P05067); assay: Aβ1-42 aggregation assay (thioflavin T fluorescence); conditions: 8 days, 50 mM Tris pH 7.4, ThT 5 μM, triplicates, slopes compared with Aβ alone
T1 construct: Aβ1-42, at a final concentration of 75 μM (pH 7.4); purchased Bachem AG (Bubendorf, Switzerland) or Schafer-N; host or cells: synthetic peptide
T1 sequence (P05067 672-713): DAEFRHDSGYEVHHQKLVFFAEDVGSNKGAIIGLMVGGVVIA
Description: Aβ1-42 was dissolved in sterile deionized water to a final concentration of 1 mM. Then, the peptide was subjected to a basic shock by adding 2 M NaOH to pH 12 followed by neutralization with 1 M HCl. Aβ1-42, at a final concentration of 75 μM (pH 7.4) either alone or in combination with NL1 (1 μM), neurolide (10 μM), or NLp7 (10 μM), was loaded in triplicates on 96-well plate. Immediately after mixing the samples, thioflavin T (5 μM, ThT; Sigma-Aldrich), dissolved in the aggregation buffer (50 mM Tris, pH 7.4), was added to wells and plate was incubated at 37 °C for 8 days. The formation of beta-amyloid aggregates was monitored first for 210 min and then every 24 h by recording changes in ThT fluorescence at excitation/emission (Ex/Em) = 440/482 nm.

[2] = target: T2, recombinant neprilysin (NEP) (Homo sapiens, UniProt P08473); assay: Neprilysin activity assay with recombinant enzyme (SensoLyte 520); type: biochemical; conditions: four to five independent experiments; for activity of recombinant NEP: dose-dependent, NL1 0.1, 0.3, 1, 3 μM, neurolide 1, 5, 10, 100 μM, 5-FAM/QXL substrate, Ex/Em 485/535 nm, 2 h
T2 construct: purchased Anaspec, Fremont, California, USA (SensoLyte 520 Neprilysin Activity Assay Kit)
T2 sequence (P08473 whole entry): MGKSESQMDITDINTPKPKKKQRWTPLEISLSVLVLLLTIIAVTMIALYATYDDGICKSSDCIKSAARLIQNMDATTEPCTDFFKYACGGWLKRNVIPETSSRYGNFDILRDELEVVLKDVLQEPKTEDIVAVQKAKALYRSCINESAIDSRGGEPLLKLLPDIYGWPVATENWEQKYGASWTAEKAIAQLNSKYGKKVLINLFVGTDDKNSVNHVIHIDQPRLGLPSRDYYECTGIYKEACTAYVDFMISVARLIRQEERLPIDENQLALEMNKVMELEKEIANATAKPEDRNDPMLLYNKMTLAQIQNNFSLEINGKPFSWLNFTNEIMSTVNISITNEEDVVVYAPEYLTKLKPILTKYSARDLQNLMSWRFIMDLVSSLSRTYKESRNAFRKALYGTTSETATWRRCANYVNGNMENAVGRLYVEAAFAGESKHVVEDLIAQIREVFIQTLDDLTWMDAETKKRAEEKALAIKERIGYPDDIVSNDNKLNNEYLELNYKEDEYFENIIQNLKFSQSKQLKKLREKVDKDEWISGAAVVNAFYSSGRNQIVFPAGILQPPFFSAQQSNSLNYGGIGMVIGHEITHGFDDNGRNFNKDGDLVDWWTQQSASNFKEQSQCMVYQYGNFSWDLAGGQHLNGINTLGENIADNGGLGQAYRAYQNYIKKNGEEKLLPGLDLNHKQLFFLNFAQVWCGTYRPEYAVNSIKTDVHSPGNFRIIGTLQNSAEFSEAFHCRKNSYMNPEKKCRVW
Description: NEP activity was measured using the SensoLyte 520 Neprilysin Activity Assay Kit *Fluorimetric* (Anaspec, Fremont, California, USA) following the protocol provided by the manufacturer. Briefly, Aβ1-42 was dissolved in anhydrous DMSO to a stock concentration of 5 mM, followed by dilutions in assay buffer (100 μM, 50 μM, and 5 μM). Both NL1 (3 μM, 1 μM, 0.3 μM, 0.1 μM) and neurolide (100, 10, 5, and 1 μM) were dissolved in assay buffer. Randomly selected two additional NL1-derived peptides, NLp4, and NLp7 (5 μM, Table 1), were included in the analysis. The NEP solution (40 μl) was mixed with 10 μl of either NL1 or peptides and supplemented with 50 μl of NEP substrate (5-FAM/QXL), and the final mixture was incubated in black optical-bottom 96-well plate (Nunc, Rochester, New York, USA). In co-stimulation experiments, Aβ1-42, prepared as described above, was added to the solution in final concentrations either 0.5 μM or 5 μM. The fluorescence signal was recorded at Ex/Em = 485/535 nm every 20 min for 2 h. The data are presented as the relative activity of NEP alone.

[3] = target: T3, brain-derived NEP (Mus musculus, UniProt Q61391); assay: Neprilysin activity in NEP-enriched brain membrane fraction of WT mice; type: biochemical, mouse (C57Bl/6j); conditions: 40 μg protein, n = 5
T3 construct: Clear supernatants were used as membrane-extracted fractions; from tissue; host or cells: adult mouse brain without cerebellum, Triton X-100-extracted membrane fraction
T3 sequence (Q61391 1-750): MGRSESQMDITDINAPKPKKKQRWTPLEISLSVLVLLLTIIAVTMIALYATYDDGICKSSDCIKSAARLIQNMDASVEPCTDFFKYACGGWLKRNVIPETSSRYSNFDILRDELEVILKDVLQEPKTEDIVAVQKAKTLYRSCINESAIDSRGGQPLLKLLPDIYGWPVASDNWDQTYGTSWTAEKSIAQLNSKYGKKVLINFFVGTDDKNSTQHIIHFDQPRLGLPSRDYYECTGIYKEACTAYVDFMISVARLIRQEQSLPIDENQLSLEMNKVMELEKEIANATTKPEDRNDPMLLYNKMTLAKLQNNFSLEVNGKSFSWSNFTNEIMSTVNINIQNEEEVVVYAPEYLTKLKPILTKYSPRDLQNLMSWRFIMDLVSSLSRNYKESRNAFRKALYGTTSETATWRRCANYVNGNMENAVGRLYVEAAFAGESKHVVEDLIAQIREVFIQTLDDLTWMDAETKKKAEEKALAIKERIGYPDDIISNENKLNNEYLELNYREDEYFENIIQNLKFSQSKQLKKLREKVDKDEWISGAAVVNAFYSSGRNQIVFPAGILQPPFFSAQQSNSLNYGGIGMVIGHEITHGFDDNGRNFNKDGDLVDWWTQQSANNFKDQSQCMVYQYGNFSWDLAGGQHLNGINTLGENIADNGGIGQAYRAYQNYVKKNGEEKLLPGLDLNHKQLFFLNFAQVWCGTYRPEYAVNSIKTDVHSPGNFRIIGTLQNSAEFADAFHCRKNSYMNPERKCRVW
Description: To measure NEP activity in brain tissue, whole brains without cerebellum were dissected from adult mice (C57Bl/6j or 5XFAD) and homogenized with a Teflon-glass homogenizer in five volumes (w/v) of ice-cold lysis buffer containing PBS (pH 7.4), 0.25 M sucrose and protease inhibitor cocktail (Complete™, EDTA-free, Roche Diagnostics, Indianapolis, IN). The homogenates were centrifuged at 9000 × g for 15 min at 4 °C. The supernatants were further centrifuged at 20,000 × g at 4 °C for 20 min. The resulting pellets were solubilized in resuspension buffer containing PBS (pH 7.4) and 1% Triton X-100 for 1 h on ice and again centrifuged at 20,000 × g at 4 °C for 20 min. Clear supernatants were used as membrane-extracted fractions. Protein concentrations of Triton-extracted membrane fractions were determined using the Pierce BCA Protein Assay kit (Thermo Fisher Scientific). The standard assay mixture consisted of membrane fraction containing 40 μg total protein diluted in 40 μl of dilution buffer, 10 μl of testing compound (NL1, neurolide or vehicle), and 50 μl of NEP substrate (5-FAM/QXL; Anaspec) in a total volume of 100 μl. The reaction was initiated by adding substrate to the assay mixture. […] Positive and negative controls were set up according to the manufacturer’s protocol (Anaspec). Fluorescence was measured at Ex/Em = 485/535 nm every 20 min for 2 h. The data were expressed as percentage of relative activity of neprilysin.

Molecule | development of ThT fluorescence (Aβ aggregation) ([1]; 75 μM Aβ1-42 + 10 μM peptide, 37 °C) | activity of recombinant NEP [2] | activity of recombinant NEP in the presence of Aβ1-42 ([2]; neurolide 10 μM with Aβ1-42 at 0.5 μM or 5 μM) | activity of brain-derived NEP ([3]; neurolide 10 μM) | rise of ThT fluorescence (Aβ aggregation) ([1]; 75 μM Aβ1-42 + 1 μM sNL1, 37 °C, Ex/Em 440/482 nm) | activity of brain-derived NEP ([3]; sNL1 0.3 μM)
I: SEGNRWSNSTKGLFQRAKK-NH2 / II: SEGNRWSNSTKGLFQRAK / III: SEGNRWSNSTKGLFQRA / IV: SEGNRWSNSTKGLFQRA (amide I:18-IV:C, I:19-II:C, II:18-III:C; C-terminus assumed) [neurolide] | attenuate Aβ peptide aggregation | significantly inhibited | significantly inhibited | significantly decreased |  | 
B1 |  | significantly inhibited |  |  | significantly decreased | significantly decreased
